Measurements: US11427548B2 (Arvinas Operations, Inc., priority 2015, dated 2022)
Where two headings read alike, the source gives them in different places.

Molecular target: T1, Androgen Receptor (Homo sapiens, UniProt P10275)
T1 construct: endogenous in cells; host or cells: VCaP cells
T1 sequence (P10275 1-920): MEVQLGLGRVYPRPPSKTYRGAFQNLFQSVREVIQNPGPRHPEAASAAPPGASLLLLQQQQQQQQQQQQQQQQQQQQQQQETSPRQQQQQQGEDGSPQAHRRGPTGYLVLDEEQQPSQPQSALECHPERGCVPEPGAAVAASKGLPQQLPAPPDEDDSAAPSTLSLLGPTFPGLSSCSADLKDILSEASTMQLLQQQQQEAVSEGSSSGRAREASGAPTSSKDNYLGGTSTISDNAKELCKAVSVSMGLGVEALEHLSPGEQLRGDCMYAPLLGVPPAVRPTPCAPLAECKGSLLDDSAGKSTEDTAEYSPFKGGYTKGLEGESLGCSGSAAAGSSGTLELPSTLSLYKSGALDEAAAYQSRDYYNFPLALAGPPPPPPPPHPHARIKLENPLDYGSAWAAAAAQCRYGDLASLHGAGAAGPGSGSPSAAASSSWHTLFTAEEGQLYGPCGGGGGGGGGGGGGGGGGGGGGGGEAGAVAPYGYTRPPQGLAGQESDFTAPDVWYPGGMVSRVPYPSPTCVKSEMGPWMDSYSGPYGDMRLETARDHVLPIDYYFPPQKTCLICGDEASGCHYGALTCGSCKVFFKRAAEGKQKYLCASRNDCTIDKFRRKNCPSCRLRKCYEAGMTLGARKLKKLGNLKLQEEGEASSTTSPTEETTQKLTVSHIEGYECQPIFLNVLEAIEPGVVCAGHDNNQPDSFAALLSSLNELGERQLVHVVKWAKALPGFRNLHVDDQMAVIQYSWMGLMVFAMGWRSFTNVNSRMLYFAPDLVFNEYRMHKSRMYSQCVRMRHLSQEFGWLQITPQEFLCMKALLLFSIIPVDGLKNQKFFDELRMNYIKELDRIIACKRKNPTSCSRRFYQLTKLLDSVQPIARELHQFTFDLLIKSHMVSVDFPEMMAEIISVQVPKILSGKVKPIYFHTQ
Experiment: Androgen Receptor ELISA assay (PathScan AR ELISA) in VCaP cells: AR degradation, Dmax and DC50
Assay type: cell-based
In short: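 VCaP cells in phenol red-free RPMI with 5% charcoal-stripped FBS were grown at least 3 days, then given compound as 7 half-log doses in 0.1% DMSO with 0.1 nM R1881 for 24 h. Lysates went into a sandwich AR ELISA with TMB read at 450 nm.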

[1] = VCaP cells; Table 36; read-out: VCaP DC50

Structure (SMILES): CC(C)(C)[C@H](NC(=O)COCCCCOc1ccc(-c2ccc(N3C(=S)N(c4cc(Cl)c(C#N)cc4F)C(=O)C3(C)C)cc2)cc1)C(=O)N1C[C@H](O)C[C@H]1C(=O)NCc1ccc(-c2cnco2)cc1 [Example 133, (2S,4R)-1-[(2S)-2-{2-[4-(4-{4-[3-(5-chloro-4-cyano-2-fluorophenyl)-5,5-dimethyl-4-oxo-2-sulfanylideneimidazolidin-1-yl]phenyl}phenoxy)butoxy]acetamido}-3,3-dimethylbutanoyl]-4-hydroxy-N-{[4-(1,3-oxazol-5-yl)phenyl]methyl}pyrrolidine-2-carboxamide]
- Dmax (VCaP, read-out: VCaP Dmax (%)): < 25%

Structure (SMILES): CC(C)(C)[C@H](NC(=O)COCCCCCNc1ccc(C(=O)N[C@H]2C(C)(C)[C@H](Oc3ccc(C#N)c(Cl)c3)C2(C)C)cc1)C(=O)N1C[C@H](O)C[C@H]1C(=O)NCc1ccc(-n2ccccc2=O)cc1 [Example 529]
- DC50 (VCaP cells; Table 35; read-out: VCaP DC50): < 50 nM
- Dmax (VCaP, VCaP cells; Table 35; read-out: VCaP Dmax (%)): < 25%

Structure (SMILES): Cc1ncsc1-c1ccc(CNC(=O)[C@H]2C[C@@H](O)CN2C(=O)[C@@H](NC(=O)[C@H](C)Oc2ccc(OCCOc3ccc(N4C(=S)N(c5ccc(C#N)c(C(F)(F)F)c5)C(=O)C4(C)C)cc3)cc2)C(C)(C)C)cc1 [Example 382]
- Dmax (VCaP, read-out: VCaP Dmax (%)): 26 to 50%
- DC50 (read-out: VCaP DC50; VCaP cells; Table 34): < 50 nM

Structure (SMILES): CC(=O)O[C@@H]1C[C@@H](C(=O)N[C@@H](C)c2ccc(-c3scnc3C)cc2)N(C(=O)[C@H](C(C)C)N2Cc3cc(OCCN4CCN(c5ccc(C(=O)N[C@H]6C(C)(C)[C@H](Oc7ccc(C#N)c(Cl)c7)C6(C)C)cn5)CC4)ccc3C2=O)C1 [Example 852, (3R,5S)-1-((S)-2-(5-(2-(4-(5-(((1r,3r)-3-(3-chloro-4-cyanophenoxy)-2,2,4,4-tetramethylcyclobutyl)carbamoyl)pyridin-2-yl)piperazin-1-yl)ethoxy)-1-oxoisoindolin-2-yl)-3-methylbutanoyl)-5-(((S)-1-(4-(4-methylthiazol-5-yl)phenyl)ethyl)carbamoyl)pyrrolidin-3-yl acetate]
- DC50 [1]: < 50 nM
- Dmax (VCaP, read-out: VCaP Dmax (%)): 51 to 70%

Structure (SMILES): Cc1ncsc1-c1ccc(CNC(=O)[C@@H]2C[C@@H](O)CN2C(=O)[C@@H](NC(=O)COCCCOCc2ccc(-c3ccc(N4C(=S)N(c5ccc(C#N)c(C(F)(F)F)c5)C(=O)C4(C)C)cc3)cc2)C(C)(C)C)cc1 [Example 128, (2S,4R)-1-[(2S)-2-[2-(3-{[4-(4-{3-[4-cyano-3-(trifluoromethyl)phenyl]-5,5-dimethyl-4-oxo-2-sulfanylideneimidazolidin-1-yl}phenyl)phen-yl]methoxy}propoxy)acetamido]-3,3-dimethylbutanoyl]-4-hydroxy-N-{[4-(4-methyl-1,3-thiazol-5-yl)phenyl]methyl}pyrrolidine-2-carboxamide]
- Dmax (VCaP, read-out: VCaP Dmax (%)): 51 to 70%
- DC50 (read-out: VCaP DC50; concentration that caused 50% Androgen Receptor degradation, VCaP cells (Table 32)): < 50 nM

Structure (SMILES): Cc1ncsc1-c1ccc([C@H](CO)NC(=O)C2C[C@@H](O)CN2C(=O)C(NC(=O)CN2C3CCC2CN(CCCc2ccc(C(=O)NC4C(C)(C)C(Oc5ccc(C#N)c(Cl)c5)C4(C)C)cc2)C3)C(C)(C)C)cc1 (stereo partly drawn) [Example 828, (2S,4R)-1-((2S)-2-(2-(3-(3-(4-(((1r,3r)-3-(3-chloro-4-cyanophenoxy)-2,2,4,4-tetramethylcyclobutyl)carbamoyl)phenyl)propyl)-3,8-diazabicyclo[3.2.1]octan-8-yl)acetamido)-3,3-dimethylbutanoyl)-4-hydroxy-N-((R)-2-hydroxy-1-(4-(4-methylthiazol-5-yl)phenyl)ethyl) pyrrolidine-2-carboxamide]
- Dmax (VCaP, read-out: VCaP Dmax (%)): > 71%
- DC50 (read-out: VCaP DC50; VCaP cells; Table 36): < 50 nM

Structure (SMILES): Cc1ncsc1-c1ccc([C@H](C)NC(=O)[C@@H]2C[C@@H](O)CN2C(=O)[C@@H](c2cc(CCCCN3CCN(c4ccc(C(=O)N[C@H]5C(C)(C)[C@H](Oc6ccc(C#N)c(Cl)c6)C5(C)C)cn4)CC3)no2)C(C)C)cc1 [Example 831, N-((1r,3r)-3-(3-chloro-4-cyanophenoxy)-2,2,4,4-tetramethylcyclobutyl)-6-(4-(4-(5-((R)-1-((2S, 4R)-4-hydroxy-2-(((S)-1-(4-(4-methylthiazol-5-yl)phenyl)ethyl)carbamoyl)pyrrolidin-1-yl)-3-methyl-1-oxobutan-2-yl)isoxazol-3-yl)butyl)piperazin-1-yl)nicotinamide]
- DC50 [1]: < 50 nM
- Dmax (VCaP, read-out: VCaP Dmax (%), VCaP cells; Table 36): > 71%
